This is an account of results in patent US8889621B2, “Inhibiting binding of FGF23 to the binary FGFR-Klotho complex for the treatment of hypophosphatemia” (New York University, priority 2009, dated 2014).

Entries after “also recorded” stand apart in the source; their conditions may differ. Peptide text beside a SMILES is read from it.

The assay has as its system binary FGFR-Klotho complexes (FGFR1c, FGFR3c, or FGFR4). In words: Co-immunoprecipitation based competition assay, HEK293-Klotho lysates. The format is binding. From the text:
Co-immunoprecipitation may also be used to determine that an agent specifically binds the binary FGFR-Klotho complex. One aspect of the present invention utilizes co-immunoprecipitation studies. Subconfluent cultures of a HEK293 cell line ectopically expressing the FLAG-tagged membrane-spanning form of murine Klotho were transfected with expression vectors for V5-tagged FGFR1c, FGFR3c, or FGFR4. Two days later, the cells were lysed, and FGFR-Klotho complexes were isolated from cell lysate using anti-V5 agarose beads. The beads were then incubated with either FGF23^180-251 or FGF23^28-251 alone, or with mixtures of FGF23^28-251 with either increasing FGF23^180-251 or increasing FGF23^180-205. Bead-bound proteins were resolved on SDS-polyacrylamide gels, transferred to nitrocellulose membranes, and labeled using antibodies to Klotho, FGF23, and V5 epitope tag.
In parallel, subconfluent HEK293-Klotho cells (Kurosu et al., “Regulation of Fibroblast Growth Factor-23 Signaling by Klotho,” J Biol Chem 281(10):6120-6123 (2006), which is hereby incorporated by reference in its entirety) were transfected with expression vectors for V5-tagged FGFR1c, FGFR3c, or FGFR4 (Kurosu et al., “Regulation of Fibroblast Growth Factor-23 Signaling by Klotho,” J Biol Chem 281(10):6120-6123 (2006), which is hereby incorporated by reference in its entirety) and binding of FGF23 proteins/peptides to Klotho-FGFR complexes isolated from cell lysate was analyzed. Two days later, the cells were lysed (Kurosu et al, “Suppression of Aging in Mice by the Hormone Klotho,” Science 309(5742):1829-1833 (2005), which is hereby incorporated by reference in its entirety), and FGFR-Klotho complexes were isolated from cell lysate using anti-V5 agarose beads (Sigma-Aldrich) (Kurosu et al., “Regulation of Fibroblast Growth Factor-23 Signaling by Klotho,” J Biol Chem 281(10):6120-6123 (2006), which is hereby incorporated by reference in its entirety). The beads were then incubated with either FGF23^180-251 (1 nM) or FGF23^28-251 (1 nM) alone, or with mixtures of FGF23^28-251 (1 nM) with either increasing FGF23^180-251 (2 to 76 nM) or increasing FGF23^180-205 (0.1 to 10 μM). Bead-bound proteins were resolved on SDS-polyacrylamide gels, transferred to nitrocellulose membranes, and labeled using antibodies to Klotho (KM2119, (Kato et al., “Establishment of the Anti-Klotho Monoclonal Antibodies and Detection of Klotho Protein in Kidneys,” Biochemical Biophysical Res Communications 267(2):597-602 (2000), which is hereby incorporated by reference in its entirety)), FGF23 (R&D systems), and V5 epitope tag (Invitrogen).

Where [1] appears, read: co-immunoprecipitation competition.

`CSCC[C@H](NC(=O)[C@H](CCCNC(=N)N)NC(=O)[C@H](C)NC(=O)[C@H](CCCNC(=N)N)NC(=O)[C@@H]1CCCN1C(=O)[C@H](CCCCN)NC(=O)[C@H](CC(C)C)NC(=O)[C@@H](NC(=O)[C@H](CC(N)=O)NC(=O)[C@H](CC(C)C)NC(=O)[C@@H]1CCCN1C(=O)[C@H](CC(=O)O)NC(=O)[C@H](CCCNC(=N)N)NC(=O)[C@H](CCC(=O)O)NC(=O)[C@H](CO)NC(=O)[C@H](CC(=O)O)NC(=O)[C@H](CC(=O)O)NC(=O)[C@H](CCC(=O)O)NC(=O)[C@H](C)NC(=O)[C@@H](N)CO)C(C)C)C(=O)N[C@H](C(=O)N1CCC[C@H]1C(=O)N[C@@H](C)C(=O)N1CCC[C@H]1C(=O)N[C@@H](C)C(=O)N[C@@H](CO)C(=O)O)[C@@H](C)O` [FGF23^180-205] (H-SAEDDSERDPLNVLKPRARMTPAPAS-OH; N-terminus and C-terminus assumed): under setting [1], the “inhibition of binding (co-precipitation) of FGF23^28-251 with binary FGFR-Klotho complexes” value is “able to inhibit binding; also recorded: inhibited co-precipitation” and the “reduced potency compared to the FGF23^180-251 peptide” value is given as “over 100 fold”.

B1: FGF23^180-251: 72-amino acid C-terminal tail of human FGF23 (S180 to I251), expressed in E. coli (protein, listed as Homo sapiens)
chain: SAEDDSERDPLNVLKPRARMTPAPASCSQELPSAEDNSPMASDPLGVVRGGRVNTHAGGTGPEGCRPFAKFI
Regarding B1, where the note is “FGF23^28-251 1 nM”, the “molar excess that completely blocked binding of FGF23^28-251 to the FGFR-Klotho complex” value was 76 fold molar excess. Moreover, the “inhibition of binding (co-precipitation) of FGF23^28-251 with binary FGFR-Klotho complexes” value under setting [1] is on record as “can inhibit binding”.
